# Measurements as given in US9249151B2, “Bis-amido pyridines” (Boehringer Ingelheim International GmbH, priority 2013, dated 2016).
# Molecular target: BIR3 domain of human cIAP1 (amino acids 256 to 363; cIAP1 BIR3) (Homo sapiens (Human), UniProt Q13490)
# Assay: cIAP1 BIR3 binding assay (DELFIA)
# Settings: not given
# Method: XIAP BIR3 and cIAP1 BIR3 Binding Assays (DELFIA)
# Peptide […]-Lys(Biotin), representing the N-terminus of mature human SMAC (SMAC peptide), was used as interaction partner in the protein-peptide interaction assay.
# BIR3 domains (10 nM) were incubated with SMAC peptide (10 nM) in assay buffer (50 mM Tris, 120 mM NaCl, 0.1% BSA, 1 mM DTT, 0.05% TritonX100) for one hour at room temperature in the presence of inhibitory compounds. The assay mixture was transferred to a streptavidin coated plate and incubated for one hour at room temperature to allow binding of the biotinylated peptide and associated BIR3 domains to the plate. After several washing steps Eu labeled anti-GST antibody (e.g. Perkin Elmer DELFIA Eu-N1-antiGST AD0250) was added to detect BIR3 domain-SMAC peptide interactions m according to Perkin Elmer's instructions. […] Time resolved Europium fluoresecence was measured in a Wallac Victor using Standard assay settings.
# DELFIA assay results were plotted against compound concentrations and Software GraphPad Prizm was used to calculate half maximal inhibitory concentrations (IC50 values).
# BIR3 domain of human cIAP1 (amino acids 256 to 363; cIAP1 BIR3), sequence (Q13490 256-363): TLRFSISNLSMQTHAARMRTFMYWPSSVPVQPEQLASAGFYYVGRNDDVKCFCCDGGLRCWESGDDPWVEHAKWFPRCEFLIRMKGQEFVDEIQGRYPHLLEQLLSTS
row,SMILES,IC50 [nM]
1,"CNC(C)C(=O)Nc1cc(-c2ncnc3cccc(C)c23)cc(NC(=O)c2ccc(Cl)cn2)n1 (stereo not shown) [Example 9, 5-chloro-N-{6-[2-(methylamino)propanamido]-4-(5-methylquinazolin-4-yl)pyridin-2-yl}pyridine-2-carboxamide]",1
2,"CNC(C)C(=O)Nc1cc(-c2c(OC)ccc3cc(C#N)ccc23)cc(NC(=O)c2ccc(Cl)cn2)n1 (stereo not shown) [Example 25, 5-chloro-N-[4-(6-cyano-2-methoxynaphihalen-1-yl)-6-[2-(methylamino)propanamido]-pyridin-2-yl]pyridine-2-carboxamide]",47

# Same assay, conditions: BIR3 domain 10 nM, SMAC peptide 10 nM; values represent the (S)-isomers; * = racemic compound; read-out: cIAP1 BIR-3 IC50
row,SMILES,IC50 [nM]
1,"CNC(C)C(=O)Nc1cc(-c2c(C)ccc3ncccc23)cc(NC(=O)c2cc3ccccc3cn2)n1 (stereo not shown) [Example 35, N-{6-[2-(methylamino)propanamido]-4-(6-methylquinolin-5-yl)pyridin-2-yl}isoquinoline-3-carboxamide]",132
2,"CNC(C)C(=O)Nc1cc(-c2ncnc3c(C)nn(C)c23)cc(NC(=O)c2ccc(Cl)cn2)n1 (stereo not shown) [Example 1, 5-chloro-N-(4-{1,3-dimethyl-1H-pyrazolo[4,3-d]pyrimidin-7-yl}-6-[2-(methylamino)propanamido]pyridin-2-yl)pyridine-2-carboxamide]",1
3,"CNC(C)C(=O)Nc1cc(-c2nn(C)c3ncnc(N)c23)cc(NC(=O)c2ccccn2)n1 (stereo not shown) [Example 17, N-(4-{4-amino-1-methyl-1H-pyrazolo[3,4-d]pyrimidin-3-yl}-6-[2-(methylamino)propanamido]-pyridin-2-yl)pyridine-2-carboxamide]",95
4,"CNC(C)C(=O)Nc1cc(-c2c(C)ccc3ncccc23)cc(NC(=O)c2ccn(C)n2)n1 (stereo not shown) [Example 41, 1-methyl-N-{6-[2-(methylamino)propanamido]-4-(6-methylquinolin-5-yl)pyridin-2-yl}-1H-pyrazole-3-carboxamide]",703
5,"CNC(C)C(=O)Nc1cc(-c2c(C)nc3ccccn23)cc(NC(=O)c2ccc(Cl)cn2)n1 (stereo not shown) [Example 6, 5-chloro-N-{6-[2-(methylamino)propanamido]-4-{2-methylimidazo[1,2-a]pyridin-3-yl}pyridin-2-yl}pyridine-2-carboxamide]",10
6,"CNC(C)C(=O)Nc1cc(-c2nccc3c(=O)n(C)n(C)c23)cc(NC(=O)c2ccc(Cl)cn2)n1 (racemic) [Example 58, 5-chloro-N-(4-{1,2-dimethyl-3-oxo-1H,2H,3H-pyrazolo-[3,4-c]pyridin-7-yl}-6-[2-(methylamino)propanamido]-pyridin-2-yl)pyridine-2-carboxamide]",3
7,"Cc1ccc(C(=O)Nc2cccc(NC(=O)C(C)N)n2)nc1 (stereo not shown) [Example 57, N-[6-(2-aminopropanamido)pyridin-2-yl]-5-methylpyridine-2-carboxamide]",421
8,"CNC(C)C(=O)Nc1cc(-c2cccc3nc(C)c(C)n23)cc(NC(=O)Cc2ccccc2)n1 (stereo not shown) [Example 49, N-(4-{2,3-dimethylimidazo[1,2-a]pyridin-5-yl}-6-(2-phenylacetamido)pyridin-2-yl)-2-(methylamino)propanamide]",5350
9,"CNC(C)C(=O)Nc1cc(-c2cccc3nn(C)c(C)c23)cc(NC(=O)c2ccc(Cl)cn2)n1 (stereo not shown) [Example 12, 5-chloro-N-[4-(2,3-dimethyl-2H-indazol-4-yl)-6-[2-(methylamino)propanamido]-pyridin-2-yl]pyridine-2-carboxamide]",3
10,"CNC(C)C(=O)Nc1cc(-c2c(C)noc2C)cc(NC(=O)c2ccc(Cl)cn2)n1 (stereo not shown) [Example 3, 5-chloro-N-[4-(dimethyl-1,2-oxazol-4-yl)-6-[2-(methylamino)propanamido]-pyridin-2-yl]pyridine-2-carboxamide]",3
11,"CNC(C)C(=O)Nc1cc(-c2cccc3nc(C)c(C)n23)cc(NC(=O)c2cc3ccccc3[nH]2)n1 (stereo not shown) [Example 50, N-(4-{2,3-dimethylimidazo[1,2-a]pyridin-5-yl}-6-[2-(methylamino)propanamido]pyridin-2-yl)-1H-indole-2-carboxamide]",348
12,"CNC(C)C(=O)Nc1cc(-c2c(C)ccc3ncccc23)cc(NC(=O)c2cc3c(cn2)COC3)n1 (stereo not shown) [Example 28, N-{6-[2-(methylamino)propanamido]-4-(6-methylquinolin-5-yl)pyridin-2-yl}-1H,3H-furo[3,4-c]pyridine-6-carboxamide]",31
13,"CNC(C)C(=O)Nc1cc(-c2c(C)ccc3ncccc23)cc(NC(=O)c2cn(C)cn2)n1 (stereo not shown) [Example 45, 1-methyl-N-{6-[2-(methylamino)propanamido]-4-(6-methylquinolin-5-yl)pyridin-2-yl}-1H-imidazole-4-carboxamide]",4940
14,"CNC(C)C(=O)Nc1cc(-c2nc(OC)nc3c(C)nn(C)c23)cc(NC(=O)c2ccc(Cl)cn2)n1 (stereo not shown) [Example 63, 5-chloro-N-(4-{5-methoxy-1,3-dimethyl-1H-pyrazolo[4,3-d]pyrimidin-7-yl}-6-[2-(methylamino)-propanamido]pyridin-2-yl)pyridine-2-carboxamide]",55
15,"CNC(C)C(=O)Nc1cc(-c2c(OC)ccc3ccccc23)cc(NC(=O)c2ccc(Cl)cn2)n1 (stereo not shown) [Example 19, 5-chloro-N-[4-(2-methoxynaphthalen-1-yl)-6-[2-(methylamino)propanamido]-pyridin-2-yl]pyridine-2-carboxamide]",225
16,"CNC(C)C(=O)Nc1cc(-c2c(OC)ccc3nccnc23)cc(NC(=O)c2ccc(Cl)cn2)n1 (stereo not shown) [Example 20, 5-chloro-N-[4-(6-methoxyquinoxalin-5-yl)-6-[2-(methylamino)propanamido]-pyridin-2-yl]pyridine-2-carboxamide]",50
17,"CNC(C)C(=O)Nc1cc(-c2c(C)nc3cccc(C)n23)cc(NC(=O)c2ccc(Cl)cn2)n1 (stereo not shown) [Example 10, 5-chloro-N-(4-{2,5-dimethylimidazo[1,2-a]pyridin-3-yl]-6-[2-(methylamino)propanamido]-pyridin-2-yl)pyridine-2-carboxamide]",7
18,"CNC(C)C(=O)Nc1cc(-c2ccncc2C#N)cc(NC(=O)c2ccc(Cl)cn2)n1 (stereo not shown) [Example 4, 5-chloro-N-[4-(3-cyanopyridin-4-yl)-6-[2-(methylamino)propanamido]-pyridin-2-yl]pyridine-2-carboxamide]",28
19,"CNC(C)C(=O)Nc1cc(-c2c(C)ccc3ncccc23)cc(NC(=O)c2cc3ccccc3o2)n1 (stereo not shown) [Example 38, N-{6-[2-(methylamino)propanamido]-4-(6-methylquinolin-5-yl)pyridin-2-yl)-1-benzofuran-2-carboxamide]",514
20,"CNC(C)C(=O)Nc1cc(-c2c(C)ccc3ncccc23)cc(NC(=O)c2ccc(C#N)cn2)n1 (stereo not shown) [Example 30, 5-cyano-N-{6-[2-(methylamino)propanamido]-4-(6-methylquinolin-5-yl)pyridin-2-yl}pyridine-2-carboxamide]",36
21,"CNC(C)C(=O)Nc1cc(-c2cccc3nc(C)c(C)n23)cc(NC(=O)c2cc3c(cn2)COC3)n1 (stereo not shown) [Example 48, N-(4-{2,3-dimethylimidazo[1,2-a]pyridin-5-yl}-6-[2-(methylamino)propanamido]pyridin-2-yl)-1H,3H-furo[3,4-c]pyridine-6-carboxamide]",1
22,"CNC(C)C(=O)Nc1cc(-c2cccc3c2c(C)nn3C)cc(NC(=O)c2ccc(Cl)cn2)n1 (stereo not shown) [Example 13, 5-chloro-N-[4-(1,3-dimethyl-1H-indazol-4-yl)-6-[2-(methylamino)propanamido]-pyridin-2-yl]pyridine-2-carboxamide]",2
23,"CNC(C)C(=O)Nc1cc(-c2ccnc3cc(F)cc(F)c23)cc(NC(=O)c2ccc(Cl)cn2)n1 (stereo not shown) [Example 23, 5-chloro-N-[4-(5,7-difluoroquinolin-4-yl)-6-[2-(methylamino)propanamido]-pyridin-2-yl]pyridine-2-carboxamide]",8
